Measured values published in patent US6737383B1, “Herbicidal oxadiazolidines” (priority 1999, dated 2004).

Key:
corn = assay: Test B pre/postemergence corn; format: in vivo, Zea mays; conditions: for Corn plant response rating: scale of 0 to 10 where 0 is no effect and 10 is complete control
Outline: (§1)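 Test chemicals in a non-phytotoxic solvent mixture with surfactant were sprayed preemergence onto planted seeds and postemergence onto plants 2 to 18 cm tall (1- to 4-leaf stage). After twelve to sixteen days in a greenhouse, injury was visually rated against untreated controls from 0 (no effect) to 10 (complete control).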

smallflower flatsedge = assay: Test B flood test smallflower flatsedge; format: in vivo, Cyperus difformis
Outline: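 Plants were grown to the 2-leaf stage before treatment with test chemical, then held in a greenhouse for twelve to sixteen days. Injury was visually rated against untreated controls on a 0–10 scale, where 0 is no effect and 10 is complete control.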

wild oat = assay: Test E wild oat; format: in vivo, Avena fatua; conditions: Preemergence
winter wheat [1] = assay: Test E winter wheat; format: in vivo, Triticum aestivum; conditions: Preemergence
blackgrass = assay: Test E blackgrass; format: in vivo, Alopecurus myosuroides; conditions: Preemergence
soybean = assay: Test B pre/postemergence soybean; format: in vivo, Glycine max; conditions: for Soybean plant response rating: scale of 0 to 10 where 0 is no effect and 10 is complete control
Outline: as §1

winter wheat [2] = assay: Test E winter wheat; format: in vivo, Triticum aestivum; conditions: Postemergence, 0 to 100 scale, 0 is no effect, 100 is complete control
Outline: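 Greenhouse-grown plants are treated (postemergence: 1- to 4-leaf stage, sandy loam/potting mix 60:40), then evaluated visually versus untreated controls some 21 to 28 days later.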

rape = assay: Test B pre/postemergence rape; format: in vivo, Brassica napus; conditions: for Rape plant response rating: scale of 0 to 10 where 0 is no effect and 10 is complete control
Outline: as §1

Italian ryegrass = assay: Test E Italian ryegrass; format: in vivo, Lolium multiflorum; conditions: Preemergence
green foxtail = assay: Test E green foxtail; format: in vivo, Setaria viridis; conditions: Preemergence
winter barley = assay: Test E winter barley; format: in vivo, Hordeum vulgare; conditions: Preemergence
[3] = Postemergence, Rate 125 g/ha, scale 0 to 10, 0 is no effect, 10 is complete control
[4] = Preemergence, Rate 62 g/ha, scale 0 to 10 (0 no effect, 10 complete control)
[5] = Rate 500 g/ha, Postemergence, scale 0 to 10, 0 no effect, 10 complete control
[6] = Postemergence (flood test), Rate 125 g/ha, scale 0 to 10, 0 is no effect, 10 is complete control
[7] = Rate 62 g/ha, Postemergence (flood test species), scale of 0 to 10 where 0 is no effect and 10 is complete control
[8] = Rate 62 g/ha, flood test species, Pre-emergence, visual evaluation after twelve to sixteen days
[9] = Rate 125 g/ha, Pre-emergence, flood test species, scale 0 to 10 where 0 is no effect and 10 is complete control
[10] = Rate 250 g/ha, Pre-emergence, flood-test species, scale 0 to 10, 0 is no effect, 10 is complete control
[11] = Rate 500 g/ha, listed under Postemergence (flood test species), scale 0 to 10, 0 no effect, 10 complete control
[12] = Rate 500 g/ha, Pre-emergence, flood test species, scale 0 to 10 (0 no effect, 10 complete control)
[13] = Rate 125 g/ha, 0 to 100 scale (0 no effect, 100 complete control)
[14] = Rate 500 g/ha, 0 to 100 scale (0 no effect, 100 complete control)
[15] = Rate 250 g/ha, 0 to 100 scale, 0 no effect, 100 complete control
[16] = Postemergence, Rate 250 g/ha, scale 0 to 10, 0 is no effect, 10 is complete control

CC(C)N(C(=O)n1oc(=O)n(C2CCC2)c1=O)c1ccc(F)cc1F [Compound 351]
Plant response rating, Corn (corn; [3]): 0
Plant response rating, Corn (corn; [4]): 0
Corn plant response rating (0 to 10 scale) (corn; Preemergence, Rate 125 g/ha): 0
Corn plant response rating (corn; Preemergence, Rate 250 g/ha): 3
Corn plant response rating (corn; Preemergence, Rate 500 g/ha): 6
Corn plant response rating (corn; Rate 62 g/ha, Postemergence): 0
Plant response rating, Corn (corn; [5]): 0
Plant response rating, S. Flatsedge (smallflower flatsedge; [6]): 6
S. Flatsedge plant response rating (smallflower flatsedge; [7]): 0
Plant response rating, S. Flatsedge (0 to 10 scale, 0 is no effect, 10 is complete control) (smallflower flatsedge; [8]): 0
S. Flatsedge plant response rating (smallflower flatsedge; [9]): 0
S. Flatsedge plant response rating (smallflower flatsedge; [10]): 0
Plant response rating, S. Flatsedge (smallflower flatsedge; [11]): 8
S. Flatsedge plant response rating (smallflower flatsedge; [12]): 0
Plant response rating, Wild oat (wild oat; [13]): 70
Plant response rating, Wild oat (wild oat; Rate 250 g/ha, 0 to 100 scale): 70
Plant response rating, Wild oat (wild oat; [14]): 80
Plant response rating, Wheat (winter) (winter wheat [1]; [13]): 50
Plant response rating, Wheat (winter) (winter wheat [1]; Rate 250 g/ha, 0 to 100 scale): 60
Plant response rating, Wheat (winter) (winter wheat [1]; [14]): 70
Plant response rating, Blackgrass (blackgrass; [13]): 35
Plant response rating, Blackgrass (blackgrass; Rate 250 g/ha, 0 to 100 scale): 85
Plant response rating, Blackgrass (blackgrass; [14]): 100
Plant response rating, Soybean (soybean; [3]): 1
Plant response rating, Soybean (soybean; [4]): 0
Soybean plant response rating (0 to 10 scale) (soybean; Preemergence, Rate 125 g/ha): 0
Soybean plant response rating (soybean; Preemergence, Rate 250 g/ha): 0
Soybean plant response rating (soybean; Preemergence, Rate 500 g/ha): 2
Soybean plant response rating (soybean; Rate 62 g/ha, Postemergence): 1
Plant response rating, Soybean (soybean; [5]): 2
Plant response rating, Wheat (winter) (winter wheat [2]; Rate 125 g/ha): 60
Plant response rating, Wheat (winter) (winter wheat [2]; Rate 250 g/ha): 70
Plant response rating, Wheat (winter) (winter wheat [2]; Rate 500 g/ha): 75
Plant response rating, Rape (rape; [3]): 0
Plant response rating, Rape (rape; [4]): 0
Rape plant response rating (0 to 10 scale) (rape; Preemergence, Rate 125 g/ha): 3
Rape plant response rating (rape; Preemergence, Rate 250 g/ha): 6
Rape plant response rating (rape; Preemergence, Rate 500 g/ha): 9
Rape plant response rating (rape; Rate 62 g/ha, Postemergence): 0
Plant response rating, Rape (rape; [5]): 5
Plant response rating, I. Ryegrass (Italian ryegrass; [13]): 55
Plant response rating, I. Ryegrass (Italian ryegrass; Rate 250 g/ha, 0 to 100 scale): 60
Plant response rating, I. Ryegrass (Italian ryegrass; [14]): 60
Plant response rating, Green foxtail (green foxtail; [13]): 40
Plant response rating, Green foxtail (green foxtail; Rate 250 g/ha, 0 to 100 scale): 90
Plant response rating, Green foxtail (green foxtail; [14]): 85
Plant response rating, Barley (winter) (winter barley; [13]): 70
Plant response rating, Barley (winter) (winter barley; [15]): 70
Plant response rating, Barley (winter) (winter barley; [14]): 80

CC1CC1n1c(=O)on(C(=O)N(c2ccccc2)C(C)C)c1=O (stereo not shown) [Compound 370]
Plant response rating, Corn (corn; [3]): 0
Plant response rating, Corn (corn; [16]): 0
Plant response rating, Corn (corn; [4]): 0
Corn plant response rating (0 to 10 scale) (corn; Preemergence, Rate 125 g/ha): 2
Corn plant response rating (corn; Preemergence, Rate 250 g/ha): 4
Corn plant response rating (corn; Preemergence, Rate 500 g/ha): 9
Corn plant response rating (corn; Rate 62 g/ha, Postemergence): 0
Plant response rating, Corn (corn; [5]): 5
Plant response rating, S. Flatsedge (smallflower flatsedge; [6]): 3
S. Flatsedge plant response rating (smallflower flatsedge; [7]): 2
Plant response rating, S. Flatsedge (0 to 10 scale, 0 is no effect, 10 is complete control) (smallflower flatsedge; [8]): 0
S. Flatsedge plant response rating (smallflower flatsedge; [9]): 0
S. Flatsedge plant response rating (smallflower flatsedge; [10]): 0
Plant response rating, S. Flatsedge (smallflower flatsedge; [11]): 7
S. Flatsedge plant response rating (smallflower flatsedge; [12]): 0
Plant response rating, S. Flatsedge (smallflower flatsedge; flood test species, listed under Postemergence, Rate 250 g/ha, scale 0 to 10, 0 is no effect, 10 is complete control): 4
Plant response rating, Wild oat (wild oat; [13]): 60
Plant response rating, Wild oat (wild oat; Rate 250 g/ha, 0 to 100 scale): 75
Plant response rating, Wild oat (wild oat; [14]): 90
Plant response rating, Wheat (winter) (winter wheat [1]; [13]): 50
Plant response rating, Wheat (winter) (winter wheat [1]; Rate 250 g/ha, 0 to 100 scale): 40
Plant response rating, Wheat (winter) (winter wheat [1]; [14]): 60
Plant response rating, Blackgrass (blackgrass; [13]): 50
Plant response rating, Blackgrass (blackgrass; Rate 250 g/ha, 0 to 100 scale): 70
Plant response rating, Blackgrass (blackgrass; [14]): 100
Plant response rating, Soybean (soybean; [3]): 2
Plant response rating, Soybean (soybean; [16]): 3
Plant response rating, Soybean (soybean; [4]): 0
Soybean plant response rating (0 to 10 scale) (soybean; Preemergence, Rate 125 g/ha): 0
Soybean plant response rating (soybean; Preemergence, Rate 250 g/ha): 2
Soybean plant response rating (soybean; Preemergence, Rate 500 g/ha): 7
Soybean plant response rating (soybean; Rate 62 g/ha, Postemergence): 1
Plant response rating, Soybean (soybean; [5]): 4
Plant response rating, Wheat (winter) (winter wheat [2]; Rate 125 g/ha): 70
Plant response rating, Wheat (winter) (winter wheat [2]; Rate 250 g/ha): 80
Plant response rating, Wheat (winter) (winter wheat [2]; Rate 500 g/ha): 85
Plant response rating, Rape (rape; [3]): 0
Plant response rating, Rape (rape; [16]): 2
Plant response rating, Rape (rape; [4]): 0
Rape plant response rating (0 to 10 scale) (rape; Preemergence, Rate 125 g/ha): 0
Rape plant response rating (rape; Preemergence, Rate 250 g/ha): 6
Rape plant response rating (rape; Preemergence, Rate 500 g/ha): 10
Rape plant response rating (rape; Rate 62 g/ha, Postemergence): 0
Plant response rating, Rape (rape; [5]): 3
Plant response rating, I. Ryegrass (Italian ryegrass; [13]): 55
Plant response rating, I. Ryegrass (Italian ryegrass; Rate 250 g/ha, 0 to 100 scale): 85
Plant response rating, I. Ryegrass (Italian ryegrass; [14]): 90
Plant response rating, Green foxtail (green foxtail; [13]): 70
Plant response rating, Green foxtail (green foxtail; Rate 250 g/ha, 0 to 100 scale): 100
Plant response rating, Green foxtail (green foxtail; [14]): 100
Plant response rating, Barley (winter) (winter barley; [13]): 60
Plant response rating, Barley (winter) (winter barley; [15]): 60
Plant response rating, Barley (winter) (winter barley; [14]): 70

CC1CC1n1c(=O)on(C(=O)N(c2ccc(F)cc2)C(C)C)c1=O (stereo not shown) [Compound 371]
Plant response rating, Corn (corn; [3]): 0
Plant response rating, Corn (corn; [16]): 0
Plant response rating, Corn (corn; [4]): 0
Corn plant response rating (0 to 10 scale) (corn; Preemergence, Rate 125 g/ha): 0
Corn plant response rating (corn; Preemergence, Rate 250 g/ha): 2
Corn plant response rating (corn; Preemergence, Rate 500 g/ha): 7
Corn plant response rating (corn; Rate 62 g/ha, Postemergence): 0
Plant response rating, Corn (corn; [5]): 1
Plant response rating, S. Flatsedge (0 to 10 scale, 0 is no effect, 10 is complete control) (smallflower flatsedge; [8]): 0
S. Flatsedge plant response rating (0 to 10 scale, 0 is no effect, 10 is complete control) (smallflower flatsedge; Rate 125 g/ha, under heading Pre-emergence, flood test species, visual evaluation after twelve to sixteen days): 0
S. Flatsedge plant response rating (smallflower flatsedge; [10]): 0
S. Flatsedge plant response rating (smallflower flatsedge; [12]): 3
Plant response rating, Wild oat (wild oat; [13]): 70
Plant response rating, Wild oat (wild oat; Rate 250 g/ha, 0 to 100 scale): 85
Plant response rating, Wild oat (wild oat; [14]): 90
Plant response rating, Wheat (winter) (winter wheat [1]; [13]): 60
Plant response rating, Wheat (winter) (winter wheat [1]; Rate 250 g/ha, 0 to 100 scale): 60
Plant response rating, Wheat (winter) (winter wheat [1]; [14]): 65
Plant response rating, Blackgrass (blackgrass; [13]): 85
Plant response rating, Blackgrass (blackgrass; Rate 250 g/ha, 0 to 100 scale): 100
Plant response rating, Blackgrass (blackgrass; [14]): 100
Plant response rating, Soybean (soybean; [3]): 1
Plant response rating, Soybean (soybean; [16]): 1
Plant response rating, Soybean (soybean; [4]): 0
Soybean plant response rating (0 to 10 scale) (soybean; Preemergence, Rate 125 g/ha): 0
Soybean plant response rating (soybean; Preemergence, Rate 250 g/ha): 0
Soybean plant response rating (soybean; Preemergence, Rate 500 g/ha): 2
Soybean plant response rating (soybean; Rate 62 g/ha, Postemergence): 1
Plant response rating, Soybean (soybean; [5]): 4
Plant response rating, Wheat (winter) (winter wheat [2]; Rate 125 g/ha): 70
Plant response rating, Wheat (winter) (winter wheat [2]; Rate 250 g/ha): 65
Plant response rating, Wheat (winter) (winter wheat [2]; Rate 500 g/ha): 80
Plant response rating, Rape (rape; [3]): 0
Plant response rating, Rape (rape; [16]): 0
Plant response rating, Rape (rape; [4]): 0
Rape plant response rating (0 to 10 scale) (rape; Preemergence, Rate 125 g/ha): 4
Rape plant response rating (rape; Preemergence, Rate 250 g/ha): 9
Rape plant response rating (rape; Preemergence, Rate 500 g/ha): 10
Rape plant response rating (rape; Rate 62 g/ha, Postemergence): 0
Plant response rating, Rape (rape; [5]): 0
Plant response rating, I. Ryegrass (Italian ryegrass; [13]): 60
Plant response rating, I. Ryegrass (Italian ryegrass; Rate 250 g/ha, 0 to 100 scale): 70
Plant response rating, I. Ryegrass (Italian ryegrass; [14]): 90
Plant response rating, Green foxtail (green foxtail; [13]): 35
Plant response rating, Green foxtail (green foxtail; Rate 250 g/ha, 0 to 100 scale): 60
Plant response rating, Green foxtail (green foxtail; [14]): 85
Plant response rating, Barley (winter) (winter barley; [13]): 40
Plant response rating, Barley (winter) (winter barley; [15]): 60
Plant response rating, Barley (winter) (winter barley; [14]): 70
